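GI50 = concentration required for 50% inhibition of growth. At the TGI there is no net growth.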
What was measured:
Assay in all cases: NCI-60 cell line screen, 384-well format
UACC-257 melanoma = tested on: UACC-257 melanoma
MDA-MB-435 melanoma = tested on: MDA-MB-435 melanoma
MALME-3M melanoma = tested on: MALME-3M melanoma
HCT-116 colon = tested on: HCT-116 colon
SF-295 CNS = tested on: SF-295 CNS
RPMI-8226 leukemia = tested on: RPMI-8226 leukemia
PC-3 prostate = tested on: PC-3 prostate
COLO 205 colon = tested on: COLO 205 colon
NCI-H23 lung = tested on: NCI-H23 lung
SN12C renal = tested on: SN12C renal
A498 renal = tested on: A498 renal
A549 NSCLC = tested on: A549 NSCLC
HCT-15 colon = tested on: HCT-15 colon
OVCAR-8 ovarian = tested on: OVCAR-8 ovarian
CCRF-CEM leukemia = tested on: CCRF-CEM leukemia
NCI-H226 lung = tested on: NCI-H226 lung
NCI-H460 NSCLC = tested on: NCI-H460 NSCLC
HOP-62 NSCLC = tested on: HOP-62 NSCLC
EKVX NSCLC = tested on: EKVX NSCLC
DU-145 prostate = tested on: DU-145 prostate
UO-31 renal = tested on: UO-31 renal
ACHN renal = tested on: ACHN renal
HT29 colon = tested on: HT29 colon
NCI/ADR-RES ovarian = tested on: NCI/ADR-RES ovarian
786-0 renal = tested on: 786-0 renal
SF-268 CNS = tested on: SF-268 CNS
MOLT-4 leukemia = tested on: MOLT-4 leukemia
NCI-H522 lung = tested on: NCI-H522 lung
K-562 leukemia = tested on: K-562 leukemia
U251 glioblastoma = tested on: U251 glioblastoma
RXF 393 renal = tested on: RXF 393 renal
SW-620 colon = tested on: SW-620 colon
HL-60(TB) leukemia = tested on: HL-60(TB) leukemia
SK-MEL-5 melanoma = tested on: SK-MEL-5 melanoma
HCC-2998 colon = tested on: HCC-2998 colon
HS 578T breast = tested on: HS 578T breast
SK-OV-3 ovarian = tested on: SK-OV-3 ovarian
NCI-H322M lung = tested on: NCI-H322M lung
LOX IMVI melanoma = tested on: LOX IMVI melanoma
MCF7 breast = tested on: MCF7 breast
BT-549 breast = tested on: BT-549 breast
IGROV1 ovarian = tested on: IGROV1 ovarian
T-47D breast = tested on: T-47D breast
HOP-92 NSCLC = tested on: HOP-92 NSCLC
TK-10 renal = tested on: TK-10 renal
OVCAR-4 ovarian = tested on: OVCAR-4 ovarian
SF-539 CNS = tested on: SF-539 CNS
CAKI-1 renal = tested on: CAKI-1 renal
OVCAR-5 ovarian = tested on: OVCAR-5 ovarian
MDA-MB-231 breast = tested on: MDA-MB-231 breast
UACC-62 melanoma = tested on: UACC-62 melanoma
MDA-MB-468 breast = tested on: MDA-MB-468 breast
SNB-19 CNS = tested on: SNB-19 CNS
OVCAR-3 ovarian = tested on: OVCAR-3 ovarian
SNB-75 CNS = tested on: SNB-75 CNS
M14 melanoma = tested on: M14 melanoma
SK-MEL-28 melanoma = tested on: SK-MEL-28 melanoma
KM12 colon = tested on: KM12 colon

## O=C(Nc1cc(Oc2cc(F)c(NC(=O)C3(C(=O)Nc4ccc(F)cc4)CC3)cc2F)ccn1)C1CC1
UACC-257 melanoma
  GI50: 1110 nM
  TGI: 2680 nM
MDA-MB-435 melanoma
  GI50: 1200 nM
  TGI: 2820 nM
MALME-3M melanoma
  GI50: 249 nM
  TGI: 1100 nM
HCT-116 colon
  GI50: 801 nM
  TGI: 54900 nM
SF-295 CNS
  GI50: 1200 nM
  TGI: 5140 nM
RPMI-8226 leukemia
  GI50: 1930 nM
  TGI: 3370 nM
PC-3 prostate
  GI50: 3300 nM
  TGI: 8130 nM
COLO 205 colon
  GI50: 660 nM
  TGI: 2870 nM
NCI-H23 lung
  GI50: 173 nM
  TGI: 578 nM
SN12C renal
  GI50: 1650 nM
  TGI: 4500 nM
A498 renal
  GI50: 3020 nM
  TGI: 8190 nM
A549 NSCLC
  GI50: 1700 nM
  TGI: 8940 nM
HCT-15 colon
  GI50: 1930 nM
  TGI: 5650 nM
OVCAR-8 ovarian
  GI50: 1950 nM
  TGI: 9880 nM
CCRF-CEM leukemia
  GI50: 445 nM
  TGI: 1470 nM
NCI-H226 lung
  GI50: 2210 nM
  TGI: 7210 nM
NCI-H460 NSCLC
  GI50: 1980 nM
  TGI: 4310 nM
HOP-62 NSCLC
  GI50: 306 nM
  TGI: 1620 nM
EKVX NSCLC
  GI50: 1730 nM
  TGI: 4380 nM
DU-145 prostate
  GI50: 1070 nM
  TGI: 61400 nM
UO-31 renal
  GI50: 2070 nM
  TGI: 7070 nM
ACHN renal
  GI50: 1660 nM
  TGI: 7310 nM
HT29 colon
  GI50: 659 nM
  TGI: 39000 nM
NCI/ADR-RES ovarian
  GI50: 1780 nM
  TGI: 6990 nM
786-0 renal
  GI50: 2000 nM
  TGI: 8410 nM
SF-268 CNS
  GI50: 364 nM
  TGI: 962 nM
MOLT-4 leukemia
  GI50: 624 nM
  TGI: 1920 nM
NCI-H522 lung
  GI50: 2060 nM
  TGI: 4170 nM
K-562 leukemia
  GI50: 320 nM
  TGI: 13900 nM
U251 glioblastoma
  GI50: 2500 nM
  TGI: 6320 nM
RXF 393 renal
  GI50: 1200 nM
  TGI: 2510 nM
SW-620 colon
  GI50: 2380 nM
  TGI: 6960 nM
HL-60(TB) leukemia
  GI50: 1150 nM
  TGI: 2380 nM
SK-MEL-5 melanoma
  GI50: 512 nM
  TGI: 1940 nM
HCC-2998 colon
  GI50: 647 nM
  TGI: 4230 nM
HS 578T breast
  GI50: 1350 nM
  TGI: 2710 nM
SK-OV-3 ovarian
  GI50: 3120 nM
  TGI: 9200 nM
NCI-H322M lung
  GI50: 1600 nM
  TGI: 6880 nM
LOX IMVI melanoma
  GI50: 1250 nM
  TGI: 2710 nM
MCF7 breast
  GI50: 376 nM
  TGI: 2090 nM
BT-549 breast
  GI50: 2370 nM
  TGI: 4710 nM
IGROV1 ovarian
  GI50: 1260 nM
  TGI: 6930 nM
T-47D breast
  GI50: 1380 nM
  TGI: 5170 nM
HOP-92 NSCLC
  GI50: 2340 nM
  TGI: > 100000 nM
TK-10 renal
  GI50: 3130 nM
  TGI: 20800 nM
OVCAR-4 ovarian
  GI50: 3980 nM
  TGI: 8260 nM
SF-539 CNS
  GI50: 1460 nM
  TGI: 2930 nM
CAKI-1 renal
  GI50: 1510 nM
  TGI: 3280 nM
OVCAR-5 ovarian
  GI50: 2350 nM
  TGI: 14800 nM
MDA-MB-231 breast
  GI50: 472 nM
  TGI: 91700 nM
UACC-62 melanoma
  GI50: 394 nM
  TGI: 1600 nM
MDA-MB-468 breast
  GI50: 1980 nM
  TGI: 3500 nM
SNB-19 CNS
  GI50: 2750 nM
  TGI: 11400 nM
OVCAR-3 ovarian
  GI50: 2350 nM
  TGI: 6000 nM
SNB-75 CNS
  GI50: 1620 nM
  TGI: 3030 nM
M14 melanoma
  GI50: 349 nM
  TGI: 1430 nM
SK-MEL-28 melanoma
  GI50: 1400 nM
  TGI: 2780 nM
KM12 colon
  TGI: 2720 nM
